Biological target: Mitogen-activated protein kinase 14 (Homo sapiens, UniProt Q16539)
Test: Inhibition of P38alpha (unknown origin)

Mitogen-activated protein kinase 14, sequence (Q16539 whole entry): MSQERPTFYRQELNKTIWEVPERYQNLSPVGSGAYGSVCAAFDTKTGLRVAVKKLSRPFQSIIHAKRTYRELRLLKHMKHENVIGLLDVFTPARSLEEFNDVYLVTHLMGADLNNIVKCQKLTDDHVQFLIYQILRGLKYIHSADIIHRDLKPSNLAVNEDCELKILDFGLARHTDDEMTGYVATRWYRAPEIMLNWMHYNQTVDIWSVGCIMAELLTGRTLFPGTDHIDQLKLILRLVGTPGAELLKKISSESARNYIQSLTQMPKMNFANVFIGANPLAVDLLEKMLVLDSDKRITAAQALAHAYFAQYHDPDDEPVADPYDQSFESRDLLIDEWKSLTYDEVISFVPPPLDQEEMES

IC50: > 20 µM
SMILES: O=C(Nc1cnn(-c2csc(C(=O)NC3CNC3)c2)c1)Nc1ccccc1Cl

From BindingDB's records for doi:10.1021/acsmedchemlett.0c00533 (Reaction Biology, 2021)
